Experimental data: PubChem BioAssay AID1259408 (Genetic Toxicology Data Bank (GENE-TOX), 2018)
Activity calls are given as the source filed them. No rule for the calls is given here.

Test system: GENE-TOX genotoxicity assays, various organisms and cells
Experiment: GENE-TOX mutagenicity studies
[1] = Species/Cell Type: Drosophila melanogaster, Assay Type: Sex-linked recessive lethal gene mutation, Assay Code: SRL+, Evaluation Type: Evaluation A (Pre-1980)
[2] = Species/Cell Type: Salmonella typhimurium (one or more of the five standard strains: TA98, TA100, TA1535, TA1537, and TA1538), Assay Type: Histidine reverse gene mutation, Ames assay, Assay Code: SALT, Evaluation Type: Evaluation A (Pre-1980)
[3] = Species/Cell Type: Allium cepa, Assay Type: Chromosome aberrations, Assay Code: ALC-, Evaluation Type: Evaluation A (Pre-1980)
[4] = Species/Cell Type: Mammalian polychromatic erythrocytes, Assay Type: Micronucleus test, chromosome aberrations, Assay Code: MNT+, Evaluation Type: Evaluation B (Post-1980)
[5] = Species/Cell Type: Bacillus subtilis (H17 vs M45T), Assay Type: Rec-assay, spot test, DNA effects (bacterial DNA repair), Assay Code: REX+, Evaluation Type: Evaluation A (Pre-1980)
[6] = Species/Cell Type: Escherichia coli polA (W3119 vs P3478), Assay Type: Rec-assay, DNA effects (bacterial DNA repair), Assay Code: RE1+, Evaluation Type: Evaluation A (Pre-1980)
[7] = Species/Cell Type: Nonhuman, Assay Type: Sister-chromatid exchange (SCE) in vitro, Assay Code: SC2+D, Dose Response: With dose response, Evaluation Type: Evaluation B (Post-1980)
[8] = Species/Cell Type: Salmonella typhimurium (one or more of the five standard strains: TA98, TA100, TA1535, TA1537, and TA1538), Assay Type: Histidine reverse gene mutation, Ames assay, Assay Code: SAL+, Evaluation Type: Evaluation A (Pre-1980)
[9] = Species/Cell Type: Saccharomyces cerevisiae, Assay Type: Mitotic recombination or gene conversion, Assay Code: YEC+, Evaluation Type: Evaluation A (Pre-1980)
[10] = Species/Cell Type: Salmonella typhimurium (one or more of the five standard strains: TA98, TA100, TA1535, TA1537, and TA1538), Assay Type: Histidine reverse gene mutation, Ames assay, Assay Code: SAL+*, Activation: With metabolic activation, Evaluation Type: Evaluation A (Pre-1980)
[11] = Species/Cell Type: Saccharomyces cerevisiae, Assay Type: Mitotic recombination or gene conversion, Assay Code: YEH-, Evaluation Type: Evaluation A (Pre-1980)
[12] = Species/Cell Type: Salmonella typhimurium (one or more of the five standard strains: TA98, TA100, TA1535, TA1537, and TA1538), Assay Type: Histidine reverse gene mutation, Ames assay, Assay Code: SAL-, Evaluation Type: Evaluation A (Pre-1980)
[13] = Species/Cell Type: Salmonella typhimurium, Assay Type: Forward and reverse gene mutation, host-mediated assay, Assay Code: HMA-, Evaluation Type: Evaluation A (Pre-1980)
[14] = Species/Cell Type: Saccharomyces cerevisiae, Assay Type: Mitotic recombination or gene conversion, Assay Code: YEH+, Evaluation Type: Evaluation A (Pre-1980)
[15] = Species/Cell Type: Saccharomyces cerevisiae, Assay Type: Reverse gene mutation, Assay Code: YERT, Evaluation Type: Evaluation A (Pre-1980)

For CC1CC(C)CN(N=O)C1 (stereo not drawn), the mutagenic call [1] was “active; positive”, the mutagenic call (Species/Cell Type: Saccharomyces cerevisiae, Assay Type: Forward gene mutation, Assay Code: YEF+*, Activation: With metabolic activation, Evaluation Type: Evaluation A (Pre-1980)) was “active; positive” and the mutagenic call (Species/Cell Type: Saccharomyces cerevisiae, Assay Type: Reverse gene mutation, Assay Code: YER+*, Activation: With metabolic activation, Evaluation Type: Evaluation A (Pre-1980)) was “active; positive”. For the same compound, the mutagenic call [2] was “no conclusion”.

With O=c1cccc2cc(O)c(O)c(O)c2c1O the mutagenic call [3] was “inactive; negative”.

OCCN1CCN(CCCN2c3ccccc3Sc3ccc(C(F)(F)F)cc32)CC1 was tested, and the mutagenic call [4] was “active; positive”.

With CCn1cc(C(=O)O)c(=O)c2ccc(C)nc21 the mutagenic call [5] was “active; positive”, the mutagenic call [1] was “active; positive” and the mutagenic call [6] was “active; positive”. The mutagenic call (Species/Cell Type: Human lymphocytes, Assay Type: Sister-chromatid exchange (SCE) in vivo, Assay Code: SCY+, Evaluation Type: Evaluation B (Post-1980)) was “active; positive”.

With [Cl-].[Cl-].[NH2-].[NH2-].[NH2-].[Pt+2] the mutagenic call (Species/Cell Type: Chinese hamster ovary (CHO) cells, Assay Type: Forward gene mutation at the HPRT locus, Assay Code: CHO+, Evaluation Type: Evaluation B (Post-1980)) was “active; positive”.

With CN(N=O)C(=O)Nc1ccc(Br)cc1 the mutagenic call [7] was “active; positive”.

In the case of O[C@@H]1[C@@H]2O[C@@H]2c2cc3c(ccc4ccccc43)cc2[C@H]1O, the mutagenic call (Species/Cell Type: Chinese hamster lung (V79) cells, Assay Type: Forward gene mutation at the HPRT or ouabain locus, Assay Code: V79+, Evaluation Type: Evaluation A (Pre-1980)) is reported as “active; positive” and the mutagenic call [8] is reported as “active; positive”.

For O=NN(CCCl)C(=O)NCCCO, the mutagenic call [1] was “active; positive” and the mutagenic call [9] was “active; positive”.

For c1ccc2nc3c(ccc4ccccc43)cc2c1, the mutagenic call [7] was “active; positive”.

CCCCCCCCCCCCN(C)N=O was tested, and the mutagenic call [10] was “active; positive”.

With O=P(N1CC1)(N1CC1)N1CCN(P(=O)(N2CC2)N2CC2)CC1 the mutagenic call (Species/Cell Type: Human lymphocytes, Assay Type: Sister-chromatid exchange (SCE) in vitro, Assay Code: SCL+D, Dose Response: With dose response, Evaluation Type: Evaluation B (Post-1980)) was “active; positive”, the mutagenic call (Species/Cell Type: Human, Assay Type: Sister-chromatid exchange (SCE) in vitro, Assay Code: SC1+D, Dose Response: With dose response, Evaluation Type: Evaluation B (Post-1980)) was “active; positive” and the mutagenic call [7] was “active; positive”.

In the case of Brc1ccccc1, the mutagenic call (Species/Cell Type: Escherichia coli polA (W3119 vs P3478), Assay Type: Rec-assay, DNA effects (bacterial DNA repair), Assay Code: RE1T, Evaluation Type: Evaluation A (Pre-1980)) is reported as “no conclusion”, the mutagenic call [4] is reported as “active; positive” and the mutagenic call [11] is reported as “inactive; negative”. For the same compound, the mutagenic call [12] was “inactive; negative”, the mutagenic call [13] was “inactive; negative” and the mutagenic call (Species/Cell Type: Syrian hamster embryo (SHE) cells, Assay Type: Cell transformation, clonal assay, Assay Code: CTC-, Evaluation Type: Evaluation A (Pre-1980)) was “inactive; negative”.

With COc1cc(O)c2c(O)c3c(c4c2c1[C@]1(C4)C(C)=CCCC1(C)C)[C@H](O)[C@@]1(O)CC(=O)C(C(N)=O)=C(O)[C@@]1(O)C3=O the mutagenic call [10] was “active; positive”.

In the case of O=[N+]([O-])c1ccc(F)c([N+](=O)[O-])c1, the mutagenic call [6] is reported as “active; positive”, the mutagenic call (Species/Cell Type: Nonhuman, Assay Type: Sister-chromatid exchange (SCE) in vitro, Assay Code: SC2-, Evaluation Type: Evaluation B (Post-1980)) is reported as “inactive; negative” and the mutagenic call (Species/Cell Type: Saccharomyces cerevisiae, Assay Type: Forward gene mutation, Assay Code: YEF+, Evaluation Type: Evaluation A (Pre-1980)) is reported as “active; positive”. The mutagenic call [9] was “active; positive” and the mutagenic call [14] was “active; positive”.

For Cc1ccc2c(c1O)N[C@H](O)[C@@H]1CC(/C=C/C(N)=O)=CN1C2=O, the mutagenic call (Species/Cell Type: Mammalian polychromatic erythrocytes, Assay Type: Micronucleus test, chromosome aberrations, Assay Code: MNTT, Evaluation Type: Evaluation B (Post-1980)) was “no conclusion”, the mutagenic call [7] was “active; positive” and the mutagenic call [9] was “active; positive”. For the same compound, the mutagenic call [14] was “active; positive”, the mutagenic call (Species/Cell Type: Saccharomyces cerevisiae, Assay Type: Reverse gene mutation, Assay Code: YER+, Evaluation Type: Evaluation A (Pre-1980)) was “active; positive” and the mutagenic call [2] was “no conclusion”.

ClCc1c2ccccc2cc2c1ccc1ccccc12 was tested, and the mutagenic call [8] was “active; positive”.

Cc1cccc(OC(=O)N(C)N=O)c1 was tested, and the mutagenic call [5] was “active; positive” and the mutagenic call (Species/Cell Type: Escherichia coli WP2, Assay Type: Tryptophan reverse gene mutation, Assay Code: WP2+, Evaluation Type: Evaluation A (Pre-1980)) was “active; positive”.

In the case of O=C(NC(=O)c1c(F)cccc1F)Nc1ccc(Cl)cc1, the mutagenic call (Species/Cell Type: Mammalian polychromatic erythrocytes, Assay Type: Micronucleus test, chromosome aberrations, Assay Code: MNTT, Evaluation Type: Evaluation A (Pre-1980)) is reported as “no conclusion”, the mutagenic call (Species/Cell Type: Mouse lymphoma (L5178Y) cells, Assay Type: Forward gene mutation at the thymidine kinase (TK) locus, chromosome aberrations, Assay Code: L51T, Evaluation Type: Evaluation A (Pre-1980)) is reported as “no conclusion” and the mutagenic call [12] is reported as “inactive; negative”.

CCCCOc1ccc(CC(=O)OC)cc1CSC(=N)N was tested, and the mutagenic call [15] was “no conclusion”.

For COc1c(OC)c(O)c2c(=O)c(OC)c(-c3ccc(O)c(O)c3)oc2c1OC, the mutagenic call [4] was “active; positive”.

Cc1ccc(C(C)C)c(O)c1 was tested, and the mutagenic call [3] was “inactive; negative” and the mutagenic call (Species/Cell Type: Drosophila melanogaster, Assay Type: Sex-linked recessive lethal gene mutation, Assay Code: SRLT, Evaluation Type: Evaluation A (Pre-1980)) was “no conclusion”.

In the case of CC1(C)[C@H]2CC[C@]1(C)[C@H](O)C2, the mutagenic call [11] is reported as “inactive; negative” and the mutagenic call [12] is reported as “inactive; negative”.

In the case of CCN(CCCCO)N=O, the mutagenic call [2] is reported as “no conclusion”.

In the case of CC(=O)ON(C(C)=O)c1ccc(-c2ccccc2)cc1, the mutagenic call (Species/Cell Type: Human diploid fibroblasts, Assay Type: Unscheduled DNA synthesis (UDS) in vitro, DNA effects, Assay Code: UDH+, Evaluation Type: Evaluation A (Pre-1980)) is reported as “active; positive” and the mutagenic call (Species/Cell Type: Nonhuman, Assay Type: Sister-chromatid exchange (SCE) in vitro, Assay Code: SC2+, Evaluation Type: Evaluation B (Post-1980)) is reported as “active; positive”.

For CCCCC[C@H](O)/C=C/[C@@H]1[C@@H](C/C=C\CCCC(=O)O)[C@@H](O)C[C@H]1O, the mutagenic call (Species/Cell Type: Rabbit, Sex: Male, Assay Type: Sperm morphology, Assay Code: SPR+, Evaluation Type: Evaluation A (Pre-1980)) was “active; positive”.

In the case of C1=Cc2cc3ccc4cccc5ccc(c2CC1)c3c45, the mutagenic call (Species/Cell Type: Mouse prostate cells, Assay Type: Cell transformation, Assay Code: CTM-, Evaluation Type: Evaluation A (Pre-1980)) is reported as “inactive; negative”.

With S=c1nc[nH]c2nc[nH]c12 the mutagenic call [6] was “active; positive”, the mutagenic call (Species/Cell Type: Mammalian germ cells, Sex: Male, Assay Type: Chromosome aberrations in vivo, Assay Code: CY9+, Evaluation Type: Evaluation A (Pre-1980)) was “active; positive” and the mutagenic call (Species/Cell Type: Mammalian polychromatic erythrocytes, Assay Type: Micronucleus test, chromosome aberrations, Assay Code: MNT+, Evaluation Type: Evaluation A (Pre-1980)) was “active; positive”. For the same compound, the mutagenic call (Species/Cell Type: Mouse (C3H/10T1/2) cells, Assay Type: Cell transformation, Assay Code: CTH-, Evaluation Type: Evaluation A (Pre-1980)) was “inactive; negative”, the mutagenic call (Species/Cell Type: Mouse, Sex: Male, Assay Type: Heritable translocation test, chromosome aberrations, Assay Code: HTT-, Evaluation Type: Evaluation A (Pre-1980)) was “inactive; negative” and the mutagenic call (Species/Cell Type: Nonhuman bone marrow, Assay Type: Chromosome aberrations, in vivo, Assay Code: CY#+D, Dose Response: With dose response, Evaluation Type: Evaluation A (Pre-1980)) was “active; positive”. The call (Species/Cell Type: Nonhuman, Assay Type: In vivo carcinogenicity studies, Assay Code: CCGT, Evaluation Type: Evaluation A (Pre-1980)) was “no conclusion”, the mutagenic call (Species/Cell Type: Nonhuman, Assay Type: Sister-chromatid exchange (SCE) in vitro, Assay Code: SC2T, Evaluation Type: Evaluation B (Post-1980)) was “no conclusion” and the mutagenic call (Species/Cell Type: Rodents, Sex: Male, Assay Type: Dominant lethal test, Assay Code: DLT+, Evaluation Type: Evaluation A (Pre-1980)) was “active; positive”.

With CC(=O)OC[C@H]1O[C@@H](Oc2ccc3c(c2O)C(=O)c2ccccc2C3=O)[C@H](OC(C)=O)[C@@H](OC(C)=O)[C@@H]1OC(C)=O the mutagenic call [2] was “no conclusion”.

For CCOP(=S)(NC(C)CC)Oc1cc(C)ccc1[N+](=O)[O-] (stereo not drawn), the mutagenic call [13] was “inactive; negative”.

In the case of CCCOc1ccc(CC(=O)OC)cc1CSC(=N)N, the mutagenic call [15] is reported as “no conclusion”.
